Assay results taken from patent publication US20130210901A1, “METHOD OF TREATING NEURODEGENERATIVE DISEASES” (Yissum Research Development Company of the Hebrew …, priority 2010, published 2013).
Like-named read-outs stand apart in the source and are kept apart here.

Key:
[1] = system: miRNA-132; experiment: miRNA expression in temporal cortex 48 hours after muscarinic agonist injection (RT-PCR); assay type: in vivo, mouse; conditions: 48 hours after injections
Description: (§1) β-actin and GAPDH were used as reference transcripts. Annealing temperature was 60° C. for all primers. Serial dilution of samples served to evaluate primers efficiency and the appropriate cDNA concentration that yields linear changes. -RT controls verified lack of genomic DNA. miRNA quantification using The TaqMan miRNA Assays (Applied Biosystems) was conducted in two-step RT-PCR kit according to the manufacturer's instructions.

[2] = system: miRNA-211; experiment: as above; assay type: in vivo, mouse; conditions: 48 hours after injections
Description: as §1

[3] = system: hnRNP A/B; experiment: hnRNP A/B expression in primary neuronal cultures incubated with cholinergic agonist; assay type: cell-based, mouse; conditions: 10 μM, 48 hours
Description: Primary mixed cortical cultures: Primary mouse cultures of neurons and glia were produced from E16 embryos. Pregnant mice were anesthetized with isoflurane and sacrificed by cervical dislocation. The uterus was removed and placed on ice. After 5 minutes the heads were dissected under binocular and cortices were removed, placed in cold DMEM, and triturated with a scalpel and up and down pippeting. The medium was replaced with neurobasal medium supplemented with 1:50 B27, 2 mM L-Glutamine (Invitrogen, Grand Island, N.Y.), 50 U penicillin and 50 μg/ml streptomycin (Biological Industries, Beit-haemek, Israel), cells were counted and plated in 12 or 24-well plated pre-treated with 10 μg/ml poly-lysine (Sigma, St. Louis). For confocal microscopy cells were plated on glass cover slips similarly treated.
Immunohistochemistry and immunofluorescence: Paraffin slides were rehydrated by washing in xylene and serial dilutions of ethanol in water. Heat-induced antigen retrieval involved boiling slides in 10 mM pH 6 citrate buffer for 10 minutes. Hydrogen peroxide methanol quench was performed for slides later developed with 3,3′-Diaminobenzidine tetrahydrochloride (DAB). […]

[4] = system: miR-211; experiment: Antisense blockage of miR-211 in cultured N9 cells, hnRNP A/B levels; assay type: cell-based

CC[C@@H]1C(=O)OC[C@@H]1Cc1cncn1C [muscarinic agonist, pilocarpine]
levels of miRNA-132 [1]: increased | levels of miRNA-211 [2]: reduced

C[N+](C)(C)CCOC(N)=O [carbachol]
expression of hnRNP A/B [3]: increased

Antisense oligonucleotides to miR-211: locked nucleic acid oligonucleotide complementary to miR-211; miR211 antagonist e.g. SEQ ID NO: 87 (antisense AGGCGAAGGATGACAAAGGGAA; locked nucleic acid oligonucleotide, pattern not given here)
hnRNP A/B levels [4]: increased | hnRNP A/B levels ([4]; listed as locked nucleic acid complementary oligonucleotide): increases
